Kd data for 48 compounds are collected here from ChEMBL document CHEMBL1147429, “Synthesis and evaluation of novel bacterial rRNA-binding benzimidazoles by mass spectrometry” (Bioorg Med Chem Lett, 2004).

The test deals with Ribosomal RNA A-site. Nature of the test: Binding affinity for the 16S ribosomal RNA A-site of Escherichia coli. It counts as nucleic-acid assay.

As for `FC(F)(F)c1ccc(Cn2c(C3CCNCC3)nc3cc(Cl)c(Cl)cc32)cc1`, the Kd came to 214 µM. The same measure for `N[C@H]1C(O)O[C@H](CO)C(O)[C@@H]1O` (single isomer, unassigned) [GLUCOSAMINE]: approximately 1000 µM. The figure for `Clc1cc2nc(C3CCNCC3)n(Cc3ccncc3)c2cc1Cl` is 60 µM; for `Nc1ccc(-c2nc3cc([N+](=O)[O-])ccc3[nH]2)cc1` it is more than 1000 µM; for `O=[N+]([O-])c1ccc(Cn2c(C3CCNCC3)nc3cc(Cl)c(Cl)cc32)cc1` it is 241 µM. The same measure for `NC1CCCC(c2nc3cc([N+](=O)[O-])ccc3[nH]2)C1` (stereo not drawn): 105 µM.

`c1nc2nc(C3CCNCC3)nc-2c[nH]1` returned an equilibrium dissociation constant (Kd) of 914 µM.

As to `FC(F)(F)c1ccc2[nH]c(C3CCNCC3)nc2c1`, the affinity, expressed as Kd, was 281 µM. The figure for `c1cc2nc(C3CCNCC3)nc-2c[nH]1` is 110 µM.

The compound `O=[N+]([O-])c1ccc2[nH]c(C3CCCCC3)nc2c1` gave a Kd of more than 1000 µM. The same measure for `Cc1ccc(S(=O)(=O)n2c(C3CCNCC3)nc3cc(Cl)c(Cl)cc32)cc1`: more than 1000 µM; for `COC(=O)Cn1c(C2CCNCC2)nc2cc(Cl)c(Cl)cc21`: 301 µM; for `CCCCn1c(C2CCNCC2)nc2cc(Cl)c(Cl)cc21`: 278 µM. The figure for `Clc1ccc2[nH]c(C3CCNCC3)nc2c1` is 508 µM; for `Brc1ccc2[nH]c(C3CCNCC3)nc2c1` it is 361 µM; for `c1c[nH]c2nc(C3CCNCC3)nc-2c1` it is 535 µM. The same measure for `Clc1cc2nc(C3CCNCC3)n(Cc3cccc(I)c3)c2cc1Cl`: 405 µM; for `COc1ccc2[nH]c(C3CCNCC3)nc2c1`: 588 µM. With `Cc1ccc(OC(=O)n2c(C3CCNCC3)nc3cc(Cl)c(Cl)cc32)cc1`, the Kd is more than 1000 µM. `Nc1ccc2[nH]c(C3CCNCC3)nc2c1` registered a Kd of 500 µM. The figure for `N[C@H]1CC[C@@H](c2nc3cc([N+](=O)[O-])ccc3[nH]2)C1` is 221 µM; for `CN1CCC(c2nc3cc([N+](=O)[O-])ccc3[nH]2)CC1` it is more than 1000 µM. The figure for `Cc1ccc2[nH]c(C3CCNCC3)nc2c1` is 439 µM; for `O=[N+]([O-])c1ccc2[nH]c(-c3ccncc3)nc2c1` it is more than 1000 µM; for `Clc1cc2nc(C3CCNCC3)[nH]c2cc1Cl` it is 174 µM. The figure for `Fc1c(F)c(C(F)(F)F)c(F)c(F)c1Cn1c(C2CCNCC2)nc2cc(Cl)c(Cl)cc21` is 117 µM. In the case of `COC(=O)c1ccc(Cn2c(C3CCNCC3)nc3cc(Cl)c(Cl)cc32)cc1`, the Kd is 224 µM. `Cc1cc2[nH]c(C3CCNCC3)nc2cc1Cl` returned a Kd of 380 µM. On to `Fc1c(F)c(F)c(Cn2c(C3CCNCC3)nc3cc(Cl)c(Cl)cc32)c(F)c1F`, for which the dissociation constant Kd was 237 µM. In turn, `O=[N+]([O-])c1ccc2[nH]c(-c3cccnc3)nc2c1` registered a Kd of more than 1000 µM. The figure for `c1ccc2[nH]c(C3CCNCC3)nc2c1` is 108 µM; for `CC(=O)N1CCC(c2nc3cc([N+](=O)[O-])ccc3[nH]2)CC1` it is more than 1000 µM.

In turn, `Clc1ccc2scc(Cn3c(C4CCNCC4)nc4cc(Cl)c(Cl)cc43)c2c1` yielded a Kd of more than 1000 µM.

Regarding `CC(C)(C)c1ccc(Cn2c(C3CCNCC3)nc3cc(Cl)c(Cl)cc32)cc1`, the Kd came out at 575 µM.

`Clc1cc2nc(C3CCNCC3)n(Cc3cccnc3)c2cc1Cl` came in with a Kd of 67 µM.

The compound `O=[N+]([O-])c1cc(C(F)(F)F)ccc1-n1c(C2CCNCC2)nc2cc(Cl)c(Cl)cc21` yielded a Kd of 122 µM. In the case of `FC(F)(F)c1ccc(Cn2c(C3CCNCC3)nc3cc(Cl)c(Cl)cc32)c(C(F)(F)F)c1`, the Kd was 159 µM. The same measure for `N[C@H]1CC[C@@H](c2nc3cc([N+](=O)[O-])ccc3[nH]2)CC1`: 123 µM.

In the case of `O=C(O)Cn1c(C2CCNCC2)nc2cc(Cl)c(Cl)cc21`, the dissociation constant (Kd) was more than 1000 µM. In turn, `Clc1cc2nc(C3CCNCC3)n(Cc3ccccc3Br)c2cc1Cl` registered a dissociation constant Kd of 593 µM. The figure for `c1ccc2sc(C3CCNCC3)nc2c1` is more than 1000 µM; for `Cn1c(C2CCNCC2)nc2cc(Cl)c(Cl)cc21` it is 239 µM; for `O=[N+]([O-])c1ccc2[nH]c(C3CCNCC3)nc2c1` it is 308 µM. The same measure for `Clc1cc2nc(C3CCNCC3)n(Cc3ccc(I)cc3)c2cc1Cl`: 198 µM; for `O=[N+]([O-])c1ccc(-n2c(C3CCNCC3)nc3cc(Cl)c(Cl)cc32)c([N+](=O)[O-])c1`: 243 µM; for `Clc1cc2nc(C3CCNCC3)n(-c3ncccn3)c2cc1Cl`: 672 µM. The figure for `Nc1cccc(-c2nc3cc([N+](=O)[O-])ccc3[nH]2)c1` is more than 1000 µM; for `Clc1cc2nc(C3CCNCC3)n(Cc3ccc(Br)cc3)c2cc1Cl` it is 434 µM.
